Laboratory results published in ChEMBL document CHEMBL3044989, “Structurecytotoxicity relationship of a novel series of miconazole-like compounds” (Med Chem Res, 2012).
Calls of active or inactive are those of the source. The rule behind the calls is not given here.

Experiments:
Escherichia coli = test: Antimicrobial activity against Escherichia coli (DH5alpha) after 16 hr by spectrophotometry; type: functional, organism-based; conditions: DH5[alpha]
K562 = test: Cytotoxicity against Homo sapiens (human) K562 cells at 20 to 80 uM after 24 hr by MTT assay; type: functional, cell-based

With `O=c1cnn(C/C(=N/Nc2ccccc2)c2ccccc2)c(=O)[nH]1` the IC50 (Escherichia coli) was 14.6 µM and the Activity (K562) was “Active”.
`c1ccc(N/N=C(/Cn2ccnc2-c2ccccc2)c2ccccc2)cc1` showed an IC50 (Escherichia coli) of 16.8 µM.
In the case of `COc1ccc(/C(Cn2ccc(=O)[nH]c2=O)=N\Nc2ccccc2)cc1`, the IC50 (Escherichia coli) is reported as 6.2 µM.
In the case of `O=C1CNC(=O)N1C/C(=N/Nc1ccccc1)c1ccccc1`, the IC50 (Escherichia coli) is reported as 3.1 µM and the Activity (K562) is reported as “Active”.
For `COc1ccc(/C(Cn2cnc3ccccc32)=N\Nc2ccccc2)cc1`, the IC50 (Escherichia coli) was 13.7 µM.
With `c1ccc(N/N=C(/Cn2ccnc2)c2ccccc2)cc1` the IC50 (Escherichia coli) was 7.6 µM.
For `Cc1cn(C/C(=N/Nc2ccccc2)c2ccccc2)c(=O)[nH]c1=O`, the IC50 (Escherichia coli) was 7.1 µM.
For `c1ccc(N/N=C(/Cn2nnc3ccccc32)c2ccccc2)cc1`, the IC50 (Escherichia coli) was 3.4 µM and the Activity (K562) was “Active”.
Work on `O=c1ccn(C/C(=N/Nc2ccccc2)c2ccccc2)c(=O)[nH]1` yielded an IC50 (Escherichia coli) of 57.3 µM.
`O=c1[nH]c(=O)n(C/C(=N/Nc2ccccc2)c2ccccc2)cc1Cl` showed an IC50 (Escherichia coli) of 4.8 µM.
For `c1ccc(N/N=C(/Cn2cnc3ccccc32)c2ccccc2)cc1`, the IC50 (Escherichia coli) was 12.3 µM.
